Data reported in PMC5943947 (Molecules : A Journal of Synthetic Chemistry and Natural …, 2017).

Key:
EGFR = EGFR (Homo sapiens, UniProt P00533); experiment: EGFR inhibitory assay (caliper mobility shift assay)
Protocol: (§2) Each of these compounds was dissolved in DMSO at 10 mM, diluted to 50× of the final desired highest inhibitor concentration in reaction by 100% DMSO, and 100 μL of each dilution was added to one well on 96-well storage plate, and diluted by transferring 10 μL to 90 μL of 100% DMSO in the next well. Besides, 100 μL of 100% DMSO was added to two empty wells for no compound control and no enzyme control in the same 96-well plate respectively. The plate was marked as source plate. 10 μL of each compound was transferred from the source plate to a new 96-well plate, which was marked as the intermediate plate. Next, 90 μL of 1× kinase base buffer was added to each well of the intermediate plate, and mixed by shaking vigorously for 10 min. A total of 5 μL of each well from the 96-well intermediate plate was transferred to a 384-well plate in duplicate.
(§3) Kinase reaction: kinase in 1× kinase base buffer, FAM-labeled peptide and ATP in the 1× kinase base buffer were added, then 10 μL of 2.5× enzyme solution was added to each well of the 384-well assay plate. After incubating at room temperature for 10 min, 10 μL of 2.5× peptide solution was added to each well of the 384-well assay plate. […] Finally, the kinase reactions were quenched with 25 μL of EDTA and the plates were washed. The dates were collected and converted with the caliper program.

MCF-7 cell line = experiment: In vitro antiproliferative activity, MTT assay, MCF-7; format: cell-based; settings: Homo sapiens, MCF7, 48 h
Protocol: (§1) HCT116, MCF-7 and B16 cell lines were plated on 96-well plates at a density of 5000 per well and incubated overnight. […] After 48 h, 0.5% MTT (Amresco, Solon, OH, USA) solution was added to each well, and further incubation for 4 h, then cells were centrifuged at 2500 rpm for 15 min and removed from the culture medium. And add 150 μL DMSO to dissolve the formazan. After mixing for 5 min, optical density was detected at 570 nm on a microplate reader (Thermo, Waltham, MA, USA).

B16 cell line = experiment: In vitro antiproliferative activity, MTT assay, B16; format: cell-based; settings: Mus musculus, 48 h
Protocol: as §1

HCT116 cell line = experiment: In vitro antiproliferative activity, MTT assay, HCT116; format: cell-based; settings: Homo sapiens, HCT-116, 48 h
Protocol: as §1

VEGFR-2 = VEGFR-2 (Homo sapiens, UniProt P35968); experiment: VEGFR-2 inhibitory assay (caliper mobility shift assay)
Sequence of VEGFR-2 (P35968 20-1356): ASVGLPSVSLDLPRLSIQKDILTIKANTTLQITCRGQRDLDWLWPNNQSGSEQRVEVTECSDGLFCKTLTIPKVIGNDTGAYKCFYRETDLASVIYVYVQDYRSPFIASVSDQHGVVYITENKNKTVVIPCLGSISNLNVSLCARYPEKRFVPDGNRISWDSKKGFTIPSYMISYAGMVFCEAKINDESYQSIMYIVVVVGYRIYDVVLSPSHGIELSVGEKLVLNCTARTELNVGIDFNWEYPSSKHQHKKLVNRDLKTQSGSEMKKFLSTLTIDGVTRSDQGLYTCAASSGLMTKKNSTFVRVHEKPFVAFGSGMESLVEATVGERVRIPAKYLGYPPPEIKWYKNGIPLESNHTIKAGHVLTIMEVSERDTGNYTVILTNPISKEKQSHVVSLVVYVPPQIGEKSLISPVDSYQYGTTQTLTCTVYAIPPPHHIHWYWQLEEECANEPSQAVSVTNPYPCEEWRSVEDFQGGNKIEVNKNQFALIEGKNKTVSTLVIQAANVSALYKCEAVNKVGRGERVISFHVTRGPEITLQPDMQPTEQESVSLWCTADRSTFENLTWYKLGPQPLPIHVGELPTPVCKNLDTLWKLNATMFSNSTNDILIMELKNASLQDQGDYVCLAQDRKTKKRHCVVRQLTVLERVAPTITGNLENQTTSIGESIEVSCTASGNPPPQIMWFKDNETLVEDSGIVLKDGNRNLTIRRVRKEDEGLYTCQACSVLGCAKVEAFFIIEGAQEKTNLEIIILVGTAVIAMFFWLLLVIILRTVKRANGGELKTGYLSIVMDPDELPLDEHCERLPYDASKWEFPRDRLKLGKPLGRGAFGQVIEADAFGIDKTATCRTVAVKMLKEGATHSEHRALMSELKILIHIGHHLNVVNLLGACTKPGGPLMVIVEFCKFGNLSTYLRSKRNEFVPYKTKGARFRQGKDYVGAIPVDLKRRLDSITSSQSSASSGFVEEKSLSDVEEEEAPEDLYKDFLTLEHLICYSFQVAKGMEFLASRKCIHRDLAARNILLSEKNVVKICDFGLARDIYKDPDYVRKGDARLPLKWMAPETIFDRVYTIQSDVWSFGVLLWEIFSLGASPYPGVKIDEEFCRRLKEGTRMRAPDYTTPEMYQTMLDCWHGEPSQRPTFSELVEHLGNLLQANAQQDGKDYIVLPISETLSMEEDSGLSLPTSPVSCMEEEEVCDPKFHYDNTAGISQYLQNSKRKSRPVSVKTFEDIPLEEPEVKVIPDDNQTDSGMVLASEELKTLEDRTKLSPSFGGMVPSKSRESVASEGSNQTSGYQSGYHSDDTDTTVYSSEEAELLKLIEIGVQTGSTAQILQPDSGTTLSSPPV
Protocol: as §2, §3

Sequence of EGFR (P00533 25-1210): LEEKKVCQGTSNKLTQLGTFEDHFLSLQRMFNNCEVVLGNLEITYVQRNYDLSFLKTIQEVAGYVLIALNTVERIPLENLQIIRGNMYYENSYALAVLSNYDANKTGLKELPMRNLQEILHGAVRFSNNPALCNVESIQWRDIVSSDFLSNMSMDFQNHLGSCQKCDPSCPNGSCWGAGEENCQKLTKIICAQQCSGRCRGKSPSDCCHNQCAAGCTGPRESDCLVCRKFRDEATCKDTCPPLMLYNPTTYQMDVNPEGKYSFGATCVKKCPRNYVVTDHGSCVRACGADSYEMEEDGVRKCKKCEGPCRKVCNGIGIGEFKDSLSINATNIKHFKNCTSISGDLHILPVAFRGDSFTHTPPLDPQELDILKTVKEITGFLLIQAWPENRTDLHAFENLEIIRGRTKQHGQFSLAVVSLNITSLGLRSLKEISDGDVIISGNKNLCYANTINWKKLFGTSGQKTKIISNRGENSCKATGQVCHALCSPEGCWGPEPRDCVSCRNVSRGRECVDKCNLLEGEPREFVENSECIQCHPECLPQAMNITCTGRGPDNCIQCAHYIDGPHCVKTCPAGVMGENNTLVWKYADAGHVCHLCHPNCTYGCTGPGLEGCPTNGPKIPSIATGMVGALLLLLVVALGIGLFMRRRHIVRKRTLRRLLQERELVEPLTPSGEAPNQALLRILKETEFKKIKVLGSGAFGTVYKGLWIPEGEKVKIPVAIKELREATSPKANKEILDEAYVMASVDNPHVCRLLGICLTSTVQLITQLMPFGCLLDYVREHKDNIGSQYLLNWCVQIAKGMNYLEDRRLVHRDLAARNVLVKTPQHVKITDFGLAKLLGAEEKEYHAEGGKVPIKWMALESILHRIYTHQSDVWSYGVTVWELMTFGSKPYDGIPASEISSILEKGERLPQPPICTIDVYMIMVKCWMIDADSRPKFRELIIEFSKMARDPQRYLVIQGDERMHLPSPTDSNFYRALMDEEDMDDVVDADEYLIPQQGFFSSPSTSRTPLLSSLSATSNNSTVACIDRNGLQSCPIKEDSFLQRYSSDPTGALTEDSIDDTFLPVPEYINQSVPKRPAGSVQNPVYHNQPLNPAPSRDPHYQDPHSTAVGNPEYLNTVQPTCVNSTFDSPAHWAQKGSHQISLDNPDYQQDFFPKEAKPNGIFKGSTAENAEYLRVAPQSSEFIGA

Structure (SMILES)	IC50 (EGFR)	IC50 (MCF-7 cell line)	IC50 (B16 cell line)	melting point	IC50 (HCT116 cell line)	IC50 (VEGFR-2)
COc1cc2ncnc(Oc3cccc(NC(=S)Nc4ccc(Br)c(C(F)(F)F)c4)c3)c2cc1OC [Compound 10c, 1-(4-Bromo-3-trifluoromethylphenyl)-3-[3-(6,7-dimethoxyquinazolin-4-yloxy)phenyl]thiourea]	0.05 µM	22.4 µM	9.68 µM		10 µM	0.18 µM
COc1cc2ncnc(Oc3cccc(NC(=S)Nc4ccc(F)c(F)c4)c3)c2cc1OC [Compound 10h, 1-(3,4-Difluorophenyl)-3-[3-(6,7-dimethoxyquinazolin-4-yloxy)phenyl]thiourea]	4.88 µM	16 µM	19.4 µM	181.3 to 184.1 °C	49.5 µM	7.06 µM
COc1cc2ncnc(Oc3cccc(NC(=S)Nc4ccc(Cl)cc4)c3)c2cc1OC [Compound 10i, 1-(4-Chlorophenyl)-3-[3-(6,7-dimethoxyquinazolin-4-yloxy)phenyl]thiourea]	4.17 µM	22.1 µM	27.4 µM	198.3 to 201 °C	> 100 µM	> 10 µM
COc1cc2ncnc(Oc3cccc(NC(=S)Nc4ccc(F)c(C(F)(F)F)c4)c3)c2cc1OC [Compound 10a, 1-[3-(6,7-Dimethoxyquinazolin-4-yloxy)phenyl]-3-(4-fluoro-3-trifluoromethylphenyl)thiourea]	0.04 µM	38.1 µM	16.9 µM	130.5 to 133 °C	37.4 µM	0.19 µM
COc1cc2ncnc(Oc3cccc(NC(=S)Nc4ccc(Cl)cc4Cl)c3)c2cc1OC [Compound 10g, 1-(2,4-Dichlorophenyl)-3-[3-(6,7-dimethoxyquinazolin-4-yloxy)phenyl]thiourea]	7.71 µM	17.1 µM	24.5 µM	187.4 to 188.2 °C	19.8 µM	> 10 µM
COc1cc2ncnc(Oc3cccc(NC(=S)Nc4ccc(F)cc4)c3)c2cc1OC [Compound 10j, 1-(4-Fluorophenyl)-3-[3-(6,7-dimethoxyquinazolin-4-yloxy)phenyl]thiourea]	5.9 µM	23.6 µM	34.1 µM	168.5 to 170 °C	89.7 µM	7.11 µM
COc1cc2ncnc(Oc3cccc(NC(=S)Nc4cccc(C(F)(F)F)c4)c3)c2cc1OC [Compound 10e, 1-(3-Trifluoromethylphenyl)-3-[3-(6,7-dimethoxyquinazolin-4-yloxy)phenyl]thiourea]	0.14 µM	13.3 µM	14.8 µM	147.5 to 149.6 °C	12.2 µM	0.35 µM
COc1cc2ncnc(Oc3cccc(NC(=S)Nc4ccc(OC(F)(F)F)cc4)c3)c2cc1OC [Compound 10f, 1-(4-Trifluoromethoxyphenyl)-3-[3-(6,7-dimethoxyquinazolin-4-yloxy)phenyl]thiourea]	> 10 µM	18.8 µM	54 µM	171.5 to 174 °C	58.6 µM	> 10 µM
COc1cc2ncnc(Oc3cccc(NC(=S)Nc4cc(C(F)(F)F)cc(C(F)(F)F)c4)c3)c2cc1OC [Compound 10d, 1-(3,5-Ditrifluoromethylphenyl)-3-[3-(6,7-dimethoxyquinazolin-4-yloxy)phenyl]thiourea]		18.8 µM	8.49 µM	122.8 to 125.6 °C	15 µM	

Now from value to compound:

IC50 (EGFR)	IC50 (MCF-7 cell line)	IC50 (B16 cell line)	melting point	IC50 (HCT116 cell line)	IC50 (VEGFR-2)	Structure (SMILES)
3.56 µM	14.8 µM	27.4 µM	172.4 to 174 °C	63.1 µM	> 10 µM	COc1cc2ncnc(Sc3cccc(NC(=S)Nc4ccc(Cl)cc4Cl)c3)c2cc1OC [Compound 10r, 1-(2,4-Dichlorophenyl)-3-[3-(6,7-dimethoxyquinazolin-4-ylsulfanyl)phenyl]thiourea]
	25 µM	9.33 µM	128.4 to 130 °C	8.79 µM		COc1cc2ncnc(Sc3cccc(NC(=S)Nc4ccc(F)c(C(F)(F)F)c4)c3)c2cc1OC [Compound 10l, 1-[3-(6,7-Dimethoxyquinazolin-4-ylsulfanyl)phenyl]-3-(4-fluoro-3-trifluoromethylphenyl) thiourea]
0.02 µM	19 µM	12.2 µM	168.2 to 171 °C	9.57 µM	0.09 µM	COc1cc2ncnc(Sc3cccc(NC(=S)Nc4cc(C(F)(F)F)cc(C(F)(F)F)c4)c3)c2cc1OC [Compound 10o, 1-(3,5-Ditrifluoromethylphenyl)-3-[3-(6,7-dimethoxyquinazolin-4-ylsulfanyl)phenyl]thiourea]
> 10 µM	32.4 µM	68.4 µM	138 to 139.3 °C	64.5 µM	> 10 µM	COc1cc2ncnc(Sc3cccc(NC(=S)Nc4ccc(OC(F)(F)F)cc4)c3)c2cc1OC [Compound 10n, 1-(4-Trifluoromethoxyphenyl)-3-[3-(6,7-dimethoxyquinazolin-4-ylsulfanyl)phenyl]thiourea]
> 10 µM	28.9 µM	> 100 µM	163.1 to 165 °C	83.2 µM	> 10 µM	COc1cc2ncnc(Sc3cccc(NC(=S)Nc4ccc(C)cc4)c3)c2cc1OC [Compound 10v, 1-p-tolyl-3-[3-(6,7-dimethoxyquinazolin-4-ylsulfanyl)phenyl]thiourea]
0.07 µM	21 µM	12.9 µM	127.5 to 131 °C	9.03 µM	0.27 µM	COc1cc2ncnc(Sc3cccc(NC(=S)Nc4cccc(C(F)(F)F)c4)c3)c2cc1OC [Compound 10p, 1-(3-Trifluoromethylphenyl)-3-[3-(6,7-dimethoxyquinazolin-4-ylsulfanyl)phenyl]thiourea]
2.86 µM	26.4 µM	57.6 µM	124.8 to 126.1 °C	23.1 µM	6.93 µM	COc1cc2ncnc(Sc3cccc(NC(=S)Nc4ccc(Cl)cc4)c3)c2cc1OC [Compound 10t, 1-(4-Chlorophenyl)-3-[3-(6,7-dimethoxyquinazolin-4-ylsulfanyl)phenyl]thiourea]
3.17 µM	30.5 µM	42.2 µM	128.2 to 130.4 °C	> 100 µM	5.14 µM	COc1cc2ncnc(Sc3cccc(NC(=S)Nc4ccc(F)c(F)c4)c3)c2cc1OC [Compound 10s, 1-(3,4-Difluorophenyl)-3-[3-(6,7-dimethoxyquinazolin-4-ylsulfanyl)phenyl]thiourea]
> 10 µM	26.5 µM	> 100 µM	138.4 to 140 °C	> 100 µM	> 10 µM	COc1cc2ncnc(Oc3cccc(NC(=S)Nc4ccc(C)cc4)c3)c2cc1OC [Compound 10k, 1-p-tolyl-3-[3-(6,7-dimethoxyquinazolin-4-yloxy)phenyl]thiourea]
5.35 µM	21.3 µM	61.2 µM	152 to 153.2 °C	27.3 µM	6.62 µM	COc1cc2ncnc(Sc3cccc(NC(=S)Nc4ccc(F)cc4)c3)c2cc1OC [Compound 10u, 1-(4-Fluorophenyl)-3-[3-(6,7-dimethoxyquinazolin-4-ylsulfanyl)phenyl]thiourea]
